In US7232578B2, “Pharmaceutical composition inducing cancer cell differentiation and the use for treatment and prevention of cancer thereof” (Bio Grand Co., Ltd., priority 2005, dated 2007):

Tests used:
HL-60 cancer cells = assay: Completeness of retinoic acid-induced differentiation with helper inducers (NBT test); assay type: cell-based; conditions: 96 hours, FIG. 5
Protocol: Differentiation helper inducers can not only decrease the effective amount of the differentiation inducer, but also promote the completeness of differentiation. HL-60 cancer cells were subcultured at an initial cell density of 1.5×10^5 cells/ml. The culture flasks were grouped into three sets; each set includes 4-5 flasks. One flask was used as the blank without additives. One set was added 0.025-0.15 μM retinoic acid as the control; the other two sets were added 4 μM of uroerythrin or vitamin B2. NBT test was conducted as described in Example 4 after incubation for 96 hours. The values thus obtained were subtracted with the value obtained by the blank without additives.

HL-60 cells = assay: Differentiation helper inducer activity (reductive index, retinoic acid-induced HL-60 differentiation, NBT+); assay type: cell-based; conditions: for Concentration to reach 0.5 reductive index: methyltransferase inhibitors as differentiation helper inducers, HL-60, retinoic acid, 96 hours; for Concentration to reach 0.5 reductive index (effective dose of differentiation inducer reduced to 50%): MAT inhibitors as differentiation helper inducers
Protocol: The differentiation of cancer cells was measured by using leukemic cancer cells HL-60 to quantitate the NBT+ cells. First, HL-60 cells were subcultured at an initial cell density 1.5×10^5 cells/ml, 10 ml/flask. A set of four flasks were used as the control, wherein only retinoic acid was added as differentiation inducer, the amount of which was adjusted to induce NBT+ cells to the range of 15% to 60%. Another flask was used as the blank which was added the solution only. The total amount of methanol in which retinoic acid was dissolved should not exceed 2%, so as not to affect the differentiation of cancer cells. Each of other sets also comprises four flasks, which were added smaller amounts of retinoic acid, and a blank flask with only the solvent. Different amounts of the differentiation helper inducers were added in each set. The cell numbers in every flask were counted after incubation for 96 hours, and NBT was assayed according to the method of Example 4. Generally, the natural differentiation of the HL-60 cells, i.e. without the action of any of the additives, is usually lower than 4%. In the sets containing only differentiation helper inducer, the differentiation of cells is less than 10%. The value of NBT+ in each flask is required to subtract the value of the blank control.
The value of ED50, i.e., the amount of the differentiation inducer required when NBT+ is 50%, can be obtained by plotting the amount against NBT+. The reductive index can be calculated from the ED50 value. Reductive index=ED50 in the presence of differentiation helper inducer/ED50 with cell differentiation inducer only. The lower the reductive index, the higher the activity of the differentiation helper induced.

[1] = tested on: HBL-100 breast cancer cells; assay: Inhibition of colony formation of HBL-100 breast cancer cells; assay type: cell-based, human
Protocol: The activity of cancer cell colony formation is determined by using HBL-100 breast cancer cells according to the method described in Example 4, which is expressed by the percentage of the activity of cancer cell colony formation in a control group in which none of the chemicals is added. A group in which thymidine is used alone, a group in which CDA-II is used alone, and a group in which thymidine and CDA-II are used together (1:1) were tested. […] The synergistic effect is remarkable.
The activity of cancer cell colony formation is determined by using HBL-100 breast cancer cells according to the method described in Example 4. Each culture flask contains 5 ml medium, which contains 3000 HBL-100 cells and different amounts of CDA-11, vitamin C or vitamin B17. After incubation at 37° C. for 5 days, the cells were stained with Giemsa, and numbers of colonies with more than 8 cells were counted under a microscope.
Another indication of the anticancer activity of CDA-II is the inhibition of colony formation of HBL-100 breast cancer cell. At the beginning, the breast cancer cells growing at the exponential phase were washed with HBS solution, then about 2 ml 0.05% trypsin-0.53 mM EDTA was added, and the solution was incubated at 37° C. for 10 minutes. Thereafter, the cell density was measured, then an aliquot was taken and diluted to 3×10^3 cells/ml. 0.5 ml of the diluted solution was added into 4.5 ml culture medium with or without CDA-II and incubated at 37° C. Five days later, the medium was discarded, and the cells were washed with isotonic saline, then methanol was added to fix cells for 15 minutes. The fixed cells were stained for 30 minutes with Giemsa staining solution diluted 20 fold. After the staining solution was discarded, the cells were washed with water and dried. The colony number above 8 cells was counted under a microscope to determine the anticancer activity of CDA-II (the result is shown in table 1).
The experiment was carried out according to FIG. 6. HBL-100 cells were cultured with different dosages of CDA-II, vitamin C and vitamin B17 alone, and with the combination of CDA-II and vitamin C, or the combination of CDA-II and vitamin B17.

[2] = retinoic acid combined with 4 μM helper inducer

`CC1=C(/C=C/C(C)=C/C=C/C(C)=C/C(=O)O)C(C)(C)CCC1` [retinoic acid] was tested, and the “Extent of differentiation (NBT+)” value (HL-60 cancer cells; differentiation inducer (0.025-0.15 μM retinoic acid) used alone) was “about 85%”.
In the case of `C=CC1=C(C)C(=O)N=C1C=c1[nH]c(=Cc2[nH]c(O)c(C)c2CCC(=O)O)c(CCC(=O)O)c1C` [uroerythrin], the “Extent of differentiation (NBT+)” value (HL-60 cancer cells; [2]) is reported as 100% and the “Concentration to reach 0.5 reductive index” value (HL-60 cells) is reported as 1.8 µM.
`CC[n+]1c(-c2ccccc2)c2cc(N)ccc2c2ccc(N)cc21` [ethidium bromide] was tested, and the “Concentration to reach 0.5 reductive index” value (HL-60 cells) was 0.95 µM.
For `Cc1cc2nc3c(=O)[nH]c(=O)nc-3n(C[C@H](O)[C@H](O)[C@H](O)CO)c2cc1C` [vitamin B2, riboflavin], the “Extent of differentiation (NBT+)” value (HL-60 cancer cells; [2]) was 100% and the “Concentration to reach 0.5 reductive index” value (HL-60 cells) was 3.0 µM.
`O=C(O)Cc1ccccc1` [phenylacetic acid] was tested, and the “Concentration to reach 0.5 reductive index (effective dose of differentiation inducer reduced to 50%)” value (HL-60 cells) was 4 mM.
`O=C1O[C@H]([C@@H](O)CO)C(O)=C1O` [vitamin C] gave an IC50 ([1]; Homo sapiens, HBL-100, 120 h, 5 days, FIG. 7, read-out: IC50, inhibition of the formation of colonies of HBL-100 human breast cancer cells) of 530 µg/mL and an inhibition at 200 µg/mL ([1]; Homo sapiens, HBL-100, vitamin C 0.2 mg/ml alone, read-out: Colony formation of HBL-100 cells: inhibition percentage, administered alone) of 12%.
With `N#CC(O[C@@H]1O[C@H](CO[C@@H]2O[C@H](CO)[C@@H](O)[C@H](O)[C@H]2O)[C@@H](O)[C@H](O)[C@H]1O)c1ccccc1` (stereo partly shown) [vitamin B17] the “IC50, inhibition of the formation of colonies of HBL-100 human breast cancer cells” value ([1]; 5 days, FIG. 7) was 130 µg/mL and the “Colony formation of HBL-100 cells: inhibition percentage, administered alone” value ([1]; vitamin B17 0.05 mg/ml alone) was 20%.
`O=C(O)CNC(=O)c1ccccc1` [hippuric acid] was tested, and the “Concentration to reach 0.5 reductive index (effective dose of differentiation inducer reduced to 50%)” value (HL-60 cells) was 8 mM.
For `CCN(CC)CCNc1ccc(CO)c2sc3ccccc3c(=O)c12` [hycanthone], the “Concentration to reach 0.5 reductive index” value (HL-60 cells) was 2 µM.
